Assays:
caveolin1 = test: Caveolin1 mRNA expression in HMO6 human microglial cells (qPCR); format: cell-based; settings: Aβ42 (5 μM) and/or Rg3 (2.5 or 5 μg/ml), 24 h (FIG. 15A-B)
Description: FIG. 15 is a graph showing a change in the expression of caveolin-1, caveolin-2, clathrin, neprilysin (NEP), insulin-degrading enzyme (IDE) according to treating Aβ and/or ginsenoside Rg3 to HMO6 human microglial cells. HMO6 cells were plated on 35 mm cell culture plates or chamber slides and Aβ42 (5 μM) and/or Rg3 (2.5 or 5 μg/ml) were treated for 24 h. Then, the mRNA expression was determined by quantitative RT-PCR. The expression of caveolin (A-B), clathrin (C) which are endocytosis-related genes and NEP (D) and IDE (E) which are genes encoding Aβ-degrading enzymes were compared depending on the presence or absence of Rg3/Aβ42. The results are shown as mean±SD. * P<0.05, ** P<0.01, *** P<0.001. […]
Total RNA extracts from HMO6 cells or perfused brain tissue were prepared using the Trizol method (Invitrogen). cDNA was synthesized from RNA by reverse transcription of 1 μg total RNA using the Improm-II reverse transcription system (Promega, Wis., USA) and oligo dT primers in a total volume of 20 μl. […] Relative sample expression levels were calculated using Rotor-Gene 6000 Series Software 1.7 and were expressed relative to β-actin for mice or glyceraldehyde 3-phosphate dehydrogenase for HMO6 cells and corrected for between-run variability. Data for the experimental samples are expressed as a percentage of the internal control gene. […]

ERK = ERK phosphorylation in HMO6 cells (western blot); format: cell-based, human; settings: Rg3 5 μg/ml, western blot (FIG. 18)
Description: FIG. 18 is a photograph showing a result of western blot analysis for confirming the degree of phosphorylation of ERK (extracellular-regulated kinase) and p38, according to an embodiment of the present invention. Depending on the presence of Rg3, the levels of phospho-ERK and phospho-p38 protein were investigated by immune-blotting. HMO6 cells were treated with Rg3 (5 μg/ml) after plated on 60 mm cell culture plates and western blot analysis was performed after the cells were placed in phenol red negative/sere-free DMEM medium for 1 h. The western blot analysis was carried out three times independently.
HMO6 cells were lysed in 1% RIPA buffer containing protease and phosphatase inhibitors (Roche, Mannheim, Germany) and whole-cell lysates were separated on 10% sodium dodecyl sulfate-polyacrylamide gel electrophoresis. After electrophoresis, the proteins were transferred to polyvinylidene fluoride membranes, and the membranes were blocked with 5% skim milk in Tris-buffered saline solution containing 0.1% Tween-20. The membranes were then immunoblotted with primary antibodies, anti-phospho-p38, anti-p38, anti-phospho-ERK, anti-ERK, and anti-f3-actin (Santa Cruz Biotechnology, USA), followed by incubation with horseradish peroxidase-conjugated anti-rabbit or anti-mouse secondary antibodies (Stressgen, USA). Blots were developed using an enhanced chemiluminescent solution (Thermo, USA).

## CC(C)=CCC[C@](C)(O)[C@H]1CC[C@]2(C)[C@@H]1[C@H](O)C[C@@H]1[C@@]3(C)CC[C@H](O[C@@H]4O[C@H](CO)[C@@H](O)[C@H](O)[C@H]4O[C@@H]4O[C@H](CO)[C@@H](O)[C@H](O)[C@H]4O)C(C)(C)[C@@H]3CC[C@]12C [ginsenoside Rg3]
caveolin1
  caveolin1-mediated Aβ42 endocytosis (caveolin mRNA): promoted Aβ42 uptake into HMO6 cells via a caveolin1 and clathrin-mediated endocytic mechanism
ERK
  phosphorylation of ERK: promoted the phosphorylation

Source: patent publication US20160022751A1, “NOVEL COMPOSITION FOR TREATING ALZHEIMER'S DISEASE AND IMPROVING COGNITIVE FUNCTION OF ALZHEIMER'S PATIENTS” (GANGNEUNG-WONJU NATIONAL UNIVERSITY INDUSTRY ACADEMY …, priority 2014, published 2016)
